# Data taken from ChEMBL document CHEMBL1133920, “Novel 4-piperidinopyridine inhibitors of oxidosqualene cyclase-lanosterol synthase derived by consideration of inhibitor pK(a)” (Bioorg Med Chem Lett, 2001).
# Assays:
# [1] = Concentration for the inhibition of rat microsomal oxidosqualene cyclase-lanosterol synthase (OSC)
# [2] = test system: Rattus norvegicus; assay: Percent reduction in food intake was determined after oral administration of 100 mg/kg in rat after 24 hours
# [3] = organism: Rattus norvegicus; assay: Effective dose for the 50% inhibition of rat cholesterol biosynthesis; format: functional
# [4] = test system: Rattus norvegicus; assay: Percent feeding effect was determined after oral administration of 100 mg/kg in rat; format: functional
# [5] = molecular target: T1, Lanosterol synthase (Rattus norvegicus) (UniProt P48450); assay: Percent inhibition of rat microsomal oxidosqualene cyclase-lanosterol synthase (OSC) at 100 nM
# T1 sequence (whole entry): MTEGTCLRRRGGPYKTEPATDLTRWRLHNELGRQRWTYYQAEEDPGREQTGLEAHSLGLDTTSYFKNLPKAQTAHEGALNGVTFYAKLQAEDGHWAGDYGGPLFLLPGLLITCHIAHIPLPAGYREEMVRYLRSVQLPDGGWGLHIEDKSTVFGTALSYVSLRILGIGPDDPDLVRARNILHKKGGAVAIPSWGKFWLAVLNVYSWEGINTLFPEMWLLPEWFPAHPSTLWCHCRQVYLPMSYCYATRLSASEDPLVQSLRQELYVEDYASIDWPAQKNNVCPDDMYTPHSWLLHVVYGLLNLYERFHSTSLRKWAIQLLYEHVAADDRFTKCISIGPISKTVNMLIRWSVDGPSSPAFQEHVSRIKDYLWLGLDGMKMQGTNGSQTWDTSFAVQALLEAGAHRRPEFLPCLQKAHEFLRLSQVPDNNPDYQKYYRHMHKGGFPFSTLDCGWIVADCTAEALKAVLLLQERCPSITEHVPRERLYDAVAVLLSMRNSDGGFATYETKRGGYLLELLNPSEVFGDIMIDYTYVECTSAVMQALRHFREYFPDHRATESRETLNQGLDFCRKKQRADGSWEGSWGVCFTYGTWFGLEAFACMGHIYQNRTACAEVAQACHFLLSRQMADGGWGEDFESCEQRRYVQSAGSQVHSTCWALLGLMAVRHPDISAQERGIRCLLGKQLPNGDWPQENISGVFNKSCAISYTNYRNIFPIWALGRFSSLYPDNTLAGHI
# [6] = organism: Rattus norvegicus; assay: Effective dose for the 80% inhibition of rat cholesterol biosynthesis; format: functional
# [7] = pKa was determined; format: physicochemical
# [8] = test system: Rattus norvegicus; assay: Percent reduction in food intake was determined after oral administration of 50 mg/kg in rat after 24 hours; format: functional
SMILES,inhibition [5] [%],ED50 [3] [mg/kg],ED80 [6] [mg/kg],other results
O=C(c1ccc(Cl)cc1)c1ccc(OC2CN3CCC2CC3)cc1 (stereo not given),,,,IC50 [1]: 58 nM
O=C(c1ccc(C(F)(F)F)cc1)N1CCC(=Cc2ccc(C3=NCCO3)cc2)CC1,,,,Reduction [2]: 15%
O=C(N1CCC(c2ccncc2)CC1)N1CCN(S(=O)(=O)c2ccc(Br)cc2)CC1,94,0.4,1.8,Effect [4]: 23%
O=C(C1CCN(c2ccncn2)CC1)N1CCN(S(=O)(=O)c2ccc(Br)cc2)CC1,,0.4,,Reduction [2]: 17%
O=C(N1CCC(c2ccncc2)CC1)N1CCN(S(=O)(=O)c2ccc(Cl)cc2)CC1,91,1.7,3.6,pKa [7]: 5.8
O=C(C1CCN(c2ncncc2Br)CC1)N1CCN(S(=O)(=O)c2ccc(Br)cc2)CC1,47,> 2,,
O=C(C1CCN(c2ccncc2Br)CC1)N1CCN(S(=O)(=O)c2ccc(Br)cc2)CC1,89,0.5,,
O=C(C1CCN(S(=O)(=O)c2ccc(Br)cc2)CC1)N1CCC(c2ccncc2)CC1,100,0.5,4.7,
O=C(C1CCN(c2ccncc2F)CC1)N1CCN(S(=O)(=O)c2ccc(C(F)(F)F)cc2)CC1,100,0.4,1,pKa [7]: 6.7
O=C(C1CCN(c2ccncc2)CC1)N1CCN(S(=O)(=O)c2ccc(Br)cc2)CC1,,,,Reduction [8]: 64%

# The next lines start with results.
inhibition [5] [%],SMILES,ED50 [3] [mg/kg],ED80 [6] [mg/kg],other results
97,O=C(N1CCC(c2ccncc2)CC1)N1CCN(S(=O)(=O)c2ccc(F)cc2)CC1,0.5,,
100,O=C(N1CCN(c2ccncc2Cl)CC1)N1CCN(S(=O)(=O)c2ccc(C(F)(F)F)cc2)CC1,0.2,0.7,
100,O=C(N1CCN(c2ccncc2Cl)CC1)N1CCN(S(=O)(=O)c2ccc(Br)cc2)CC1,1.1,2.3,
100,O=C(N1CCN(c2ccncc2Cl)CC1)N1CCN(S(=O)(=O)c2ccc(F)cc2)CC1,1.1,2.3,
87,O=C(N1CCN(c2ccncc2Cl)CC1)N1CCN(S(=O)(=O)c2ccc(Cl)cc2)CC1,0.6,1.4,Effect [4]: 14%; pKa [7]: 5.8
